Earlier results on 8 molecules are cited in patent US20130142872A1, “EMP2: Ethyl-Methyl, di Methyl, tri Methyl Pyruvate Acid Esters: A Tool for Regulating HbA1c and a Riboswitch Activator” (priority 2011, published 2013).

The conditions of data set [1]: clinically prescribed / clinically relevant doses.
The conditions of data set [2]: wide variety of preclinical models of critical illnesses.
The conditions of data set [3]: after coronary ischemia and reperfusion.
Another data set has as its system B-islet pancreatic cell. The settings on record: as compared to its glucose control.
The subject of data set [4] is primary astrocyte cultures. The settings on record: 10 mM extracellular NAD(+) after MNNG exposure.
The subject of data set [5] is Cultured mouse astrocytes. The settings on record: for cell death / translocation of the apoptosis-inducing factor from mitochondria to nuclei: after PARP-1 activation.
The next data set concerns THP-1 monocytic cells. The note with it: PMA-stimulated THP-1 cells.
Data set [6] deals with Mouse neuron and astrocyte cultures. The note with it: for NAD(+) depletion: PARP1 activation by MNNG or H(2)O(2); for poly(ADP-ribose) accumulation: during MNNG exposure, immunostaining; for cell death: hydrogen peroxide, NMDA or MNNG exposure.

Regarding `CCOC(=O)C(C)=O` [Ethyl pyruvate, ethyl pyruvate], the “safety in human volunteers” value in data set [1] was “safe”. In addition, the “survival and organ dysfunction” value in data set [2] was “improve survival and ameliorate organ dysfunction”. The cardiac function result in data set [3] was “improve cardiac function”.
Turning to `COC(=O)C(C)=O` [Methyl pyruvate], in the data set on B-islet pancreatic cell, the “increase in insulin production” value is recorded as “six-fold”. Also, the “safety in human volunteers” value in data set [1] was “safe”.
As for `NC(=O)c1ccc[n+]([C@@H]2O[C@H](COP(=O)([O-])OP(=O)(O)OC[C@H]3O[C@@H](n4cnc5c(N)ncnc54)[C@H](O)[C@@H]3O)[C@@H](O)[C@H]2O)c1` [NAD(+)], in data set [4], the cell death result was “prevented” and the glycolytic capacity result is reported as “completely restored”. For the same molecule, the mitochondrial membrane potential result in data set [5] (NAD(+) restored to near-normal levels after PARP-1 activation) is “enabled the recovery”. Further, in data set [5], the cell death result was “blocked” and the “translocation of the apoptosis-inducing factor from mitochondria to nuclei” value was “blocked”.
Turning to `CCCCC/C=C/C=C1/C(=O)C=CC1C/C=C\CCCC(=O)O` (stereo not drawn) [PGJ2, 15-deoxy-Delta(12, 14)-PGJ2], in the data set with THP-1 monocytic cells, the “IL-1, IL-6 and TNFalpha (pro-inflammatory cytokine) secretion” value is recorded as “inhibitory effect”; the IL-1Ra production result was “increasing”.
In the case of `NC(=O)c1ccccc1` [benzamide], in data set [6], the “NAD(+) depletion” value is “prevented”, the “poly(ADP-ribose) accumulation” value was “decrease” and the cell death entry is “markedly reduced”.
Turning to `O=C(OC[C@H]1O[C@@H](OC(=O)c2cc(O)c(O)c(OC(=O)c3cc(O)c(O)c(O)c3)c2)[C@H](OC(=O)c2cc(O)c(O)c(OC(=O)c3cc(O)c(O)c(O)c3)c2)[C@@H](OC(=O)c2cc(O)c(O)c(OC(=O)c3cc(O)c(O)c(O)c3)c2)[C@@H]1OC(=O)c1cc(O)c(O)c(OC(=O)c2cc(O)c(O)c(O)c2)c1)c1cc(O)c(O)c(OC(=O)c2cc(O)c(O)c(O)c2)c1` [gallotannin], in data set [6], the “NAD(+) depletion” value is “prevented”, the “poly(ADP-ribose) accumulation” value was “increase” and the cell death result is recorded as “equally reduced”.
Turning to cyclosporin A, in data set [5], the cell death result is recorded as “blocked” and the “translocation of the apoptosis-inducing factor from mitochondria to nuclei” value is recorded as “blocked”.
Consider nobotanin B, for which the cell death entry in data set [6] is given as “equally reduced”.
